Key:
Experiment in all cases: relative viability (nuclei count vs DMSO), 5 days (fraction); higher = more cells survive
Axitinib + Dasatinib = compound: CNC(=O)c1ccccc1Sc1ccc2c(/C=C/c3ccccn3)n[nH]c2c1 [Axitinib] + Cc1nc(Nc2ncc(C(=O)Nc3c(C)cccc3Cl)s2)cc(N2CCN(CCO)CC2)n1 [Dasatinib] (partner 0.075 µM)
Procedure, shortened: (§1)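 One day after seeding in 1536-well plates, lung cancer cell lines were dosed by pin tool. Dosing was either single-drug or a fixed anchor-drug dose plus five library-drug doses (not always all listed) in √10 steps. After 5 days, nuclei were stained in one fix-and-stain step and counted on 4× images, and relative viability is the nuclei count of treated wells over that of vehicle wells, given as the median of duplicate plates.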

Bemcentinib + Bortezomib = compound: Nc1nc(Nc2ccc3c(c2)CC[C@@H](N2CCCC2)CC3)nn1-c1cc2c(nn1)-c1ccccc1CCC2 [Bemcentinib] + CC(C)C[C@H](NC(=O)[C@H](Cc1ccccc1)NC(=O)c1cnccn1)B(O)O [Bortezomib] (partner 0.002 µM)
Procedure, shortened: as §1

[1] = compound: CC1=CC=C(C=C1)C(=O)CN2C3=C(CCCC3)SC2=N [Pifithrin_alpha] + N=C(N)NC(=N)NCCc1ccccc1 [Phenformin] (partner 250 µM)
Procedure, shortened: as §1

[2] = compound: CC1=CC=C(C=C1)C(=O)CN2C3=C(CCCC3)SC2=N [Pifithrin_alpha] + C[C@@H](Oc1cc(-c2cnn(C3CCNCC3)c2)cnc1N)c1c(Cl)ccc(F)c1Cl [Crizotinib] (partner 1 µM)
Procedure, shortened: as §1

Row | Cell Line | relative viability (Axitinib + Dasatinib; first compound 0.005 µM) | relative viability (Axitinib + Dasatinib; first compound 0.01581 µM) | relative viability (Axitinib + Dasatinib; first compound 0.05 µM) | relative viability (Axitinib + Dasatinib; first compound 0.1581 µM) | relative viability (Axitinib + Dasatinib; first compound 0.5 µM) | relative viability (Bemcentinib + Bortezomib; first compound 0.04 µM) | relative viability (Bemcentinib + Bortezomib; first compound 0.1265 µM) | relative viability (Bemcentinib + Bortezomib; first compound 0.4 µM) | relative viability (Bemcentinib + Bortezomib; first compound 1.265 µM) | relative viability (Bemcentinib + Bortezomib; first compound 4 µM) | relative viability ([1]; first compound 1 µM) | relative viability ([1]; first compound 3.162 µM) | relative viability ([1]; first compound 10 µM) | relative viability ([1]; first compound 31.62 µM) | relative viability ([1]; first compound 100 µM) | relative viability ([2]; first compound 1 µM) | relative viability ([2]; first compound 3.162 µM) | relative viability ([2]; first compound 10 µM) | relative viability ([2]; first compound 100 µM) | relative viability ([2]; first compound 31.62 µM)
1 | LU99A | 0.626 | 0.563 | 0.589 | 0.577 | 0.475 | 1.11 | 1.12 | 1.01 | 1.25 | 1.2 | 0.817 | 0.809 | 0.904 | 0.406 | 0.763 | 0.565 | 0.633 | 0.496 | 0.699 | –
2 | LXF-289 | 0.242 | 0.208 | 0.285 | 0.304 | 0.271 | 1.02 | 1.06 | 1.03 | 1.06 | 1.07 | 0.509 | 0.562 | 0.526 | 0.471 | 0.556 | 0.878 | 0.813 | 0.805 | 0.788 | 0.696
3 | NCI-H23 | 1.04 | 0.872 | 0.933 | 0.778 | 0.803 | 1.16 | 1.14 | 1.01 | 1.17 | 1.14 | 0.853 | 0.734 | 0.764 | – | 0.753 | 0.591 | 0.596 | 0.432 | 0.506 | 0.426
4 | NCI-H322M | 0.253 | 0.231 | 0.239 | 0.259 | 0.246 | 1.25 | 1.25 | 1.23 | 1.34 | 1.34 | 0.825 | 0.728 | 0.869 | 0.713 | 0.728 | 0.894 | 0.907 | 0.871 | 0.986 | 0.674
5 | NCI-H441 | 0.592 | 0.722 | 0.595 | 0.575 | 0.604 | 0.923 | 0.689 | 0.455 | 0.407 | 0.507 | 0.893 | 0.988 | 1.15 | – | 0.994 | 0.718 | 0.739 | 0.806 | 0.826 | 0.56
6 | NCI-H460 | 0.429 | 0.515 | 0.607 | 0.49 | 0.441 | 1.24 | 1.54 | 1.66 | 1.25 | 1.15 | 0.494 | 0.576 | 0.473 | 0.179 | 0.443 | 1.4 | 0.827 | 0.912 | 0.962 | –
7 | NCI-H520 | 0.197 | 0.159 | 0.194 | – | 0.192 | 0.517 | 0.472 | 0.711 | 0.591 | 0.61 | 0.579 | 0.554 | 0.566 | – | 0.581 | 1.19 | 0.805 | 0.731 | 0.833 | 0.509
8 | NCI-H596 | 0.519 | 0.477 | 0.653 | 0.569 | 0.507 | 0.897 | 1.23 | 1.08 | 1.1 | 1.03 | 0.761 | 0.737 | 0.84 | 0.766 | 0.494 | 0.953 | 0.92 | 0.952 | 1.02 | 0.883
9 | NCI-H647 | 0.206 | 0.182 | 0.194 | 0.18 | 0.126 | 1.18 | 1.14 | 1.24 | 0.811 | 1.11 | 0.58 | 0.674 | 0.548 | 0.299 | 0.4 | 0.838 | 1.03 | 0.927 | 0.605 | –
10 | NCI-H661 | 1.01 | 0.737 | 0.843 | 0.83 | 0.927 | 0.782 | 0.92 | 0.887 | 0.772 | 0.899 | 0.24 | 0.29 | 0.292 | 0.308 | 0.282 | 1.16 | 0.93 | 0.908 | 0.988 | 1.17
11 | NCI-H727 | 0.403 | 0.371 | 0.436 | 0.465 | 0.347 | 0.691 | 1.12 | 0.918 | 0.746 | 1.1 | 0.604 | 0.572 | 0.538 | – | 0.501 | 0.789 | 0.78 | 0.823 | 0.673 | 0.556
12 | NCI-H838 | 0.288 | 0.352 | 0.342 | 0.282 | 0.262 | 1.01 | 0.748 | 0.986 | 0.763 | 0.834 | 0.548 | 0.514 | 0.554 | 0.412 | 0.444 | 0.829 | 0.746 | 0.667 | 0.625 | 0.496
13 | NCI-H1355 | 0.723 | 0.766 | 0.779 | 0.757 | 0.642 | 1.22 | 1.3 | 1.15 | 1.24 | 1.26 | 0.456 | 0.401 | 0.378 | 0.351 | 0.38 | 0.995 | 0.734 | 0.62 | 0.733 | 0.619
14 | NCI-H1437 | 0.396 | 0.388 | 0.448 | 0.388 | 0.442 | 0.54 | 0.546 | 0.503 | 0.405 | 0.489 | 0.296 | 0.258 | 0.294 | 0.264 | 0.259 | 1.05 | 0.962 | 0.892 | 1.02 | 0.763
15 | NCI-H1563 | 0.482 | 0.456 | 0.457 | 0.449 | 0.426 | 0.811 | 0.86 | 0.859 | 0.992 | 0.863 | 0.622 | 0.706 | 0.643 | 0.601 | 0.616 | 0.907 | 0.846 | 0.714 | 0.731 | 0.832
16 | NCI-H1650 | 0.317 | 0.318 | 0.324 | 0.332 | 0.302 | 0.199 | 0.209 | 0.199 | 0.192 | 0.225 | – | 0.446 | 0.333 | 0.273 | 0.349 | 0.979 | 0.912 | 0.936 | 0.792 | 0.648
17 | NCI-H1651 | 0.482 | 0.396 | 0.409 | 0.404 | 0.502 | 0.955 | 1.05 | 1.03 | 0.745 | 0.878 | 0.345 | 0.351 | 0.387 | 0.26 | 0.317 | 0.942 | 0.924 | 0.934 | 0.959 | 0.835
18 | NCI-H1666 | 0.836 | 0.838 | 0.825 | 0.88 | 0.829 | 0.649 | 0.937 | 0.854 | 0.895 | 0.759 | 0.525 | 0.52 | 0.425 | 0.455 | 0.436 | 0.665 | 0.63 | 0.549 | 0.316 | 0.474
19 | NCI-H1734 | 0.515 | 0.491 | 0.507 | 0.499 | 0.446 | 0.935 | 0.871 | 1.2 | 0.953 | 0.947 | 0.358 | 0.456 | 0.372 | 0.362 | 0.376 | 0.826 | 0.647 | 0.686 | 0.604 | 0.592
20 | NCI-H1755 | 0.444 | 0.436 | 0.479 | 0.439 | 0.388 | 0.982 | 1 | 0.973 | 0.995 | 0.961 | 0.605 | 0.603 | 0.57 | 0.423 | 0.53 | 0.858 | 0.78 | 0.771 | 0.864 | 0.634
21 | NCI-H1792 | 0.763 | 0.749 | 0.618 | 0.761 | 0.838 | 1.02 | 1.17 | 1.19 | 1.04 | 1.03 | 0.292 | – | 0.472 | – | 0.372 | 0.869 | 0.821 | 0.798 | 0.573 | 0.612
22 | NCI-H1915 | 0.307 | 0.289 | 0.315 | 0.29 | 0.252 | 0.731 | 1.02 | 1.04 | 0.853 | 1.05 | 0.385 | 0.424 | – | – | 0.435 | 0.867 | 0.979 | 0.912 | 1.25 | –
23 | NCI-H1975 | 0.413 | 0.342 | 0.393 | 0.347 | 0.39 | 0.381 | 0.347 | 0.417 | 0.433 | 0.44 | 0.394 | 0.38 | 0.373 | 0.337 | 0.364 | 0.881 | 0.8 | 0.659 | 0.611 | 0.537
24 | NCI-H1993 | 0.609 | 0.708 | 0.735 | 0.712 | 0.52 | 1.12 | 1.17 | 1.14 | 0.921 | 1.2 | 0.474 | 0.461 | 0.49 | 0.547 | 0.511 | – | 0.771 | 0.815 | 0.794 | 0.797
25 | NCI-H2009 | 0.303 | 0.35 | 0.355 | 0.301 | 0.413 | 0.986 | 1.05 | 1.09 | 1.09 | 1.19 | 0.483 | 0.467 | 0.451 | 0.345 | 0.422 | 0.963 | 1.03 | 0.955 | 0.857 | 0.679
26 | NCI-H2023 | 0.537 | 0.525 | 0.701 | 0.515 | 0.621 | 0.938 | 1.03 | 1.04 | 1.15 | 1.12 | 0.521 | 0.485 | 0.456 | – | 0.389 | 0.505 | 0.501 | 0.381 | 0.37 | 0.3
27 | NCI-H2085 | 0.237 | 0.22 | 0.216 | 0.247 | 0.199 | 1.01 | 1.11 | 1.03 | 0.997 | 0.973 | – | 0.597 | 0.686 | 0.65 | 0.619 | 0.795 | 0.848 | 0.7 | 0.966 | 0.747

From the supplement of paper PMC10307832
